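Method: 48-hour compound exposure of cells in 96-well plates, five concentrations, linear interpolation of endpoints. GI50: concentration for 50% inhibition of growth.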 Calls of active or inactive are those of the source. Rule as the data show it: active = GI50 up to about 1.1 µM and inactive = higher.
Assays:
Assay in all cases: NCI anticancer screen, dose series, 48 h
HOP-92 = system: HOP-92
HOP-18 = system: HOP-18
SK-OV-3 = system: SK-OV-3
OVCAR-4 = system: OVCAR-4
DMS-114 = system: DMS-114
RXF 393 = system: RXF 393
NCI-H460 = system: NCI-H460
IGROV-1 = system: IGROV-1
A549 = system: A549
UACC-62 = system: UACC-62
SNB-19 = system: SNB-19
SK-MEL-28 = system: SK-MEL-28
EKVX = system: EKVX
CAKI-1 = system: CAKI-1
SW-620 = system: SW-620
T47D = system: T47D
MCF7 = system: MCF7
DU-145 = system: DU-145
BT-549 = system: BT-549
Hs-578T = system: Hs-578T

SMILES | GI50 (HOP-92) | GI50 (HOP-18) | GI50 (SK-OV-3) | GI50 (OVCAR-4) | GI50 (DMS-114) | GI50 (RXF 393) | GI50 (NCI-H460) | GI50 (IGROV-1) | GI50 (A549) | GI50 (UACC-62) | GI50 (SNB-19) | GI50 (SK-MEL-28) | GI50 (EKVX) | GI50 (CAKI-1) | GI50 (SW-620) | GI50 (T47D) | GI50 (MCF7) | GI50 (DU-145) | GI50 (BT-549) | GI50 (Hs-578T)
CCCCCCCCCCCCCCCCCCOCC1(COP(=O)([O-])OCC[N+](C)(C)C)CCCO1 (centres undefined) | 3.27 µM (inactive) | 2.82 µM (inactive) | 14.4 µM (inactive) | 2.83 µM (inactive) | 5.16 µM (inactive) | 0.393 µM (active) | 1.57 µM (inactive) | 2.49 µM (inactive) | 7.6 µM (inactive) | 8.75 µM (inactive) | 3.7 µM (inactive) | 18.2 µM (inactive) | – | – | – | – | – | – | – | –
CCN(CC)c1c(C(=O)/C=C/c2ccccc2)c(-c2ccccc2)nn(C)c1=O | 45.1 µM (inactive) | – | > 100 µM (inactive) | 4.78 µM (inactive) | 5.32 µM (inactive) | 3.98 µM (inactive) | 3.83 µM (inactive) | 9.79 µM (inactive) | 5.37 µM (inactive) | 5.41 µM (inactive) | 29.4 µM (inactive) | 7.14 µM (inactive) | 8.3 µM (inactive) | > 100 µM (inactive) | – | – | – | – | – | –
Cc1cc2c(=O)cc(-c3ccc(C(=O)O)cc3)oc2c(C(=O)O)c1C | > 100 µM (inactive) | > 100 µM (inactive) | > 100 µM (inactive) | > 100 µM (inactive) | > 100 µM (inactive) | – | > 100 µM (inactive) | > 100 µM (inactive) | > 100 µM (inactive) | > 100 µM (inactive) | > 100 µM (inactive) | > 100 µM (inactive) | > 100 µM (inactive) | > 100 µM (inactive) | > 100 µM (inactive) | – | – | – | – | –
CCC1OCCN1C(C)C (centres undefined) | – | – | > 100 µM (inactive) | – | 85.9 µM (inactive) | > 100 µM (inactive) | 63.1 µM (inactive) | > 100 µM (inactive) | > 100 µM (inactive) | 59 µM (inactive) | > 100 µM (inactive) | 32.8 µM (inactive) | 26.2 µM (inactive) | – | > 100 µM (inactive) | – | – | – | – | –
COc1ccc(Br)c(N/N=C2\CCCNC2=O)c1 | 48.9 µM (inactive) | 39.6 µM (inactive) | 81.3 µM (inactive) | > 100 µM (inactive) | 90.8 µM (inactive) | – | > 100 µM (inactive) | 96.4 µM (inactive) | > 100 µM (inactive) | > 100 µM (inactive) | > 100 µM (inactive) | > 100 µM (inactive) | 22.6 µM (inactive) | 36.3 µM (inactive) | 71.1 µM (inactive) | – | – | – | – | –
COC(=O)/N=C(\NC(=O)OC)Nc1ccc(Oc2ccccc2)cc1NC=O | 24.3 µM (inactive) | > 100 µM (inactive) | 0.215 µM (active) | 0.891 µM (active) | 0.253 µM (active) | – | – | 1.62 µM (inactive) | 0.597 µM (active) | 0.573 µM (active) | > 100 µM (inactive) | – | 89.5 µM (inactive) | – | 0.388 µM (active) | – | – | – | – | –
C[C@]12CCC[C@H](O)[C@H]1C[C@H](CO)CC2 | > 100 µM (inactive) | > 100 µM (inactive) | > 100 µM (inactive) | > 100 µM (inactive) | – | – | > 100 µM (inactive) | > 100 µM (inactive) | > 100 µM (inactive) | > 100 µM (inactive) | > 100 µM (inactive) | > 100 µM (inactive) | – | > 100 µM (inactive) | > 100 µM (inactive) | – | – | – | – | –
COc1ccc(OC)c2c(C(=O)O)c(C(C)c3ccccc3)ccc12 (centres undefined) | – | > 100 µM (inactive) | > 100 µM (inactive) | > 100 µM (inactive) | – | > 100 µM (inactive) | > 100 µM (inactive) | > 100 µM (inactive) | > 100 µM (inactive) | > 100 µM (inactive) | > 100 µM (inactive) | > 100 µM (inactive) | > 100 µM (inactive) | > 100 µM (inactive) | > 100 µM (inactive) | – | – | – | – | –
CCC(CC)C(=O)OC[n+]1cccc(-c2c(COC(=O)NC(C)C)c(COC(=O)NC(C)C)c3n2CCC3)c1 | 72.3 µM (inactive) | – | > 100 µM (inactive) | > 100 µM (inactive) | – | 61.4 µM (inactive) | 45.8 µM (inactive) | > 100 µM (inactive) | > 100 µM (inactive) | 46.6 µM (inactive) | > 100 µM (inactive) | > 100 µM (inactive) | > 100 µM (inactive) | 49.4 µM (inactive) | > 100 µM (inactive) | > 100 µM (inactive) | 64.9 µM (inactive) | > 100 µM (inactive) | > 100 µM (inactive) | 50.7 µM (inactive)
CCC1CN2CCc3cc(OC)c(OC)cc3C2CC1CC1c2cc(OC)c(OC)cc2CCN1C(=O)C1CCCN1 (centres undefined) | 28.7 µM (inactive) | 33.7 µM (inactive) | 29.4 µM (inactive) | 25.5 µM (inactive) | – | 33.5 µM (inactive) | 25.9 µM (inactive) | 28.4 µM (inactive) | 26.4 µM (inactive) | – | 14.9 µM (inactive) | 18.8 µM (inactive) | 36.6 µM (inactive) | 6.44 µM (inactive) | 28.8 µM (inactive) | – | – | – | – | –
CC1(C)SCc2nc3ncccc3n21 | > 100 µM (inactive) | – | > 100 µM (inactive) | > 100 µM (inactive) | > 100 µM (inactive) | > 100 µM (inactive) | > 100 µM (inactive) | > 100 µM (inactive) | > 100 µM (inactive) | > 100 µM (inactive) | – | > 100 µM (inactive) | > 100 µM (inactive) | > 100 µM (inactive) | > 100 µM (inactive) | – | – | – | – | –
CCN(CC)CCNc1ccc2nc(C)n3c4ccc(O)cc4c(=O)c1c23 | – | – | 1.14 µM (inactive) | 0.525 µM (active) | 1.42 µM (inactive) | – | 0.215 µM (active) | 1.38 µM (inactive) | 0.179 µM (active) | – | 0.546 µM (active) | 2.77 µM (inactive) | – | 1.24 µM (inactive) | 0.596 µM (active) | – | – | – | – | –
O=C(O)/C(Cl)=C(\Cl)C(=O)Nc1ccc(Cl)c(Cl)c1Cl | 17.2 µM (inactive) | 16.3 µM (inactive) | 19.7 µM (inactive) | 19.4 µM (inactive) | 20.8 µM (inactive) | – | 21.8 µM (inactive) | 20.7 µM (inactive) | 18.5 µM (inactive) | 13.3 µM (inactive) | 15.3 µM (inactive) | 27.9 µM (inactive) | 22.6 µM (inactive) | 18.1 µM (inactive) | 20.5 µM (inactive) | – | – | – | – | –
CC(C)(C)C1=CC(=NNC(=S)NCc2ccccc2)C=C(C(C)(C)C)C1=O | – | – | – | 90.2 µM (inactive) | 54.8 µM (inactive) | 78.9 µM (inactive) | 47.6 µM (inactive) | > 100 µM (inactive) | 42.7 µM (inactive) | > 100 µM (inactive) | 71 µM (inactive) | > 100 µM (inactive) | 89.3 µM (inactive) | – | > 100 µM (inactive) | – | – | – | – | –
CCOC(OCC)C(CC)[Se]c1ccccc1 (centres undefined) | 28.6 µM (inactive) | 65.2 µM (inactive) | > 100 µM (inactive) | 13.3 µM (inactive) | 2.82 µM (inactive) | 55.2 µM (inactive) | 45.7 µM (inactive) | > 100 µM (inactive) | > 100 µM (inactive) | > 100 µM (inactive) | > 100 µM (inactive) | > 100 µM (inactive) | > 100 µM (inactive) | > 100 µM (inactive) | – | – | – | – | – | –
CC(C)c1cccc(C(C)C)c1NC(=O)/C(Cc1nc2ccc(Cl)cc2nc1O)=N\NC(=O)C[N+](C)(C)C | 85.5 µM (inactive) | – | > 100 µM (inactive) | > 100 µM (inactive) | > 100 µM (inactive) | > 100 µM (inactive) | > 100 µM (inactive) | > 100 µM (inactive) | > 100 µM (inactive) | > 100 µM (inactive) | > 100 µM (inactive) | > 100 µM (inactive) | 4.22 µM (inactive) | 95.7 µM (inactive) | > 100 µM (inactive) | – | – | – | – | –
C=CCc1cc2cccc(OC)c2oc1=O | 92.3 µM (inactive) | 73.6 µM (inactive) | – | > 100 µM (inactive) | 80.5 µM (inactive) | – | > 100 µM (inactive) | > 100 µM (inactive) | > 100 µM (inactive) | > 100 µM (inactive) | > 100 µM (inactive) | > 100 µM (inactive) | 44.3 µM (inactive) | > 100 µM (inactive) | > 100 µM (inactive) | – | – | – | – | –
O=c1[nH]ccc(CNC23CC4CC(CC(C4)C2)C3)c1O | – | > 100 µM (inactive) | > 100 µM (inactive) | > 100 µM (inactive) | – | 48.4 µM (inactive) | 79.3 µM (inactive) | > 100 µM (inactive) | > 100 µM (inactive) | > 100 µM (inactive) | > 100 µM (inactive) | – | 80.4 µM (inactive) | 59.7 µM (inactive) | > 100 µM (inactive) | – | – | – | – | –
COc1cc2c(c(OC)c1OC)-c1ccc(SC)c(=O)cc1[C@@H](NC(=O)c1ccc(Cl)cc1)CC2 | – | – | – | < 0.01 µM (active) | < 0.01 µM (active) | < 0.01 µM (active) | < 0.01 µM (active) | < 0.01 µM (active) | < 0.01 µM (active) | < 0.01 µM (active) | < 0.01 µM (active) | 13.9 µM (inactive) | – | – | < 0.01 µM (active) | – | – | – | – | –
O=C1CCC2(c3ccccc3)Nc3ccccc3N12 (centres undefined) | > 100 µM (inactive) | – | – | > 100 µM (inactive) | > 100 µM (inactive) | > 100 µM (inactive) | > 100 µM (inactive) | > 100 µM (inactive) | > 100 µM (inactive) | > 100 µM (inactive) | – | > 100 µM (inactive) | > 100 µM (inactive) | > 100 µM (inactive) | > 100 µM (inactive) | – | – | – | – | –

— ChEMBL document CHEMBL1201862, “PubChem BioAssay data set” (2004)
